Experiments:
human NHE-3 = target: T1, human NHE-3 (Homo sapiens, UniProt P48764); assay: Cell-based assay of NHE-3 activity (human NHE3 inhibition assay); conditions: OK cells with human NHE-3 gene, BCECF pH dye, 0-30 μM test compound; for IC50: read-out: Human NHE3 pIC50 (converted)
T1 construct: expressed in transfected cells; host or cells: Opossum kidney (OK) cells (ATCC), transfected by electroporation
T1 sequence (P48764 26-834): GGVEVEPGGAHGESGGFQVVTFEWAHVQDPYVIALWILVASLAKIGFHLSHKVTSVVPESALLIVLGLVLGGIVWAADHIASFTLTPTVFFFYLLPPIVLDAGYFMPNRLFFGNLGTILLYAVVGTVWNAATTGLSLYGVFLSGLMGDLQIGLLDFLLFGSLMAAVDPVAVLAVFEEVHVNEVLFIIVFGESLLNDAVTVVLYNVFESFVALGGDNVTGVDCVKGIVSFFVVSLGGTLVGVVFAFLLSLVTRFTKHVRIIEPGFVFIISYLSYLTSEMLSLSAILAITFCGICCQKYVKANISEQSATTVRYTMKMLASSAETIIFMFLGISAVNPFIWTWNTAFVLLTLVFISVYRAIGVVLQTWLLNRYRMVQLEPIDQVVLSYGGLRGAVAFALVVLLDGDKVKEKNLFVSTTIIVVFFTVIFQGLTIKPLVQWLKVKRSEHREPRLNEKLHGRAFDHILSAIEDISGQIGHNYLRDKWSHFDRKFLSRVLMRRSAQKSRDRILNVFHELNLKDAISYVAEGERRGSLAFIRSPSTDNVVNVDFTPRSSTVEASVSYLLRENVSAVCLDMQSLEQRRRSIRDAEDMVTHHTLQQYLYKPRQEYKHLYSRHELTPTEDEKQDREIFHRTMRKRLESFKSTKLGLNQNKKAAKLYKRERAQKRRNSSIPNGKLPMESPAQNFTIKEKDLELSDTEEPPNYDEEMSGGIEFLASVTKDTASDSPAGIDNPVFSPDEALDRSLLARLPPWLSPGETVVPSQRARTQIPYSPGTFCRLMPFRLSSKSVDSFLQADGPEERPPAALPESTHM
Protocol: (§1) Rat or human NHE-3-mediated Na^+-dependent H^+ antiport was measured using a modification of the pH sensitive dye method originally reported by Paradiso (Proc. Natl. Acad. Sci. USA. (1984) 81(23): 7436-7440). Opossum kidney (OK) cells were obtained from the ATCC and propagated per their instructions. The rat NHE-3 gene (GenBank M85300) or the human NHE-3 gene (GenBank NM_004174.1) was introduced into OK cells via electroporation, and cells were seeded into 96 well plates and grown overnight. Medium was aspirated from the wells, cells were washed twice with NaCl-HEPES buffer (100 mM NaCl, 50 mM HEPES, 10 mM glucose, 5 mM KCl, 2 mM CaCl2, 1 mM MgCl2, pH 7.4), then incubated for 30 min at room temperature with NH4Cl-HEPES buffer (20 mM NH4Cl, 80 mM NaCl, 50 mM HEPES, 5 mM KCl, 2 mM CaCl2, 1 mM MgCl2, pH 7.4) containing 5 μM bis(acetoxymethyl) 3,3′-(3′,6′-bis(acetoxymethoxy)-5-((acetoxymethoxy)carbonyl)-3-oxo-3H-spiro[isobenzofuran-1,9′-xanthene]-2′,7′-diyl)dipropanoate (BCECF-AM). Cells were washed twice with Ammonium free, Na^+-free HEPES (100 mM choline, 50 mM HEPES, 10 mM glucose, 5 mM KCl, 2 mM CaCl2, 1 mM MgCl2, pH 7.4) and incubated in the same buffer for 10 minutes at room temperature to lower intracellular pH. […] Initial rates were plotted as the average 2 or more replicates, and pIC50 values were estimated using GraphPad Prism.

Rat NHE-3 [1] = target: T2, Rat NHE-3 (Rattus norvegicus, UniProt P26433); assay: Cell-based assay of NHE-3 activity (rat NHE-3 prompt inhibition); conditions: OK cells with rat NHE-3 gene, compound present during pH recovery; for IC50: read-out: Rat NHE3 pIC50 (prompt) (converted)
T2 construct: expressed in transfected cells; host or cells: Opossum kidney (OK) cells (ATCC), transfected by electroporation
Protocol: as §1

Rat NHE-3 [2] = target: T2, Rat NHE-3; assay: Cell-based assay of NHE-3 activity (persistent inhibition, after washout); conditions: OK cells with rat NHE-3 gene, 60 min incubation, recovery initiated 40 min after compound washout; for IC50: read-out: Rat NHE3 pIC50 (persistent) (converted)
Protocol: The ability of compounds to inhibit Rat NHE-3-mediated Na^+-dependent H^+ antiport after application and washout was measured using a modification of the pH sensitive dye method described above in Example 74. Opossum kidney (OK) cells were obtained from the ATCC and propagated per their instructions. The rat NHE-3 gene was introduced into OK cells via electroporation, and cells were seeded into 96 well plates and grown overnight. Medium was aspirated from the wells, cells were washed twice with NaCl-HEPES buffer (100 mM NaCl, 50 mM HEPES, 10 mM glucose, 5 mM KCl, 2 mM CaCl2, 1 mM MgCl2, pH 7.4), then overlayed with NaCl-HEPES buffer containing 0-30 μM test compound. After a 60 min incubation, the test drug containing buffer was aspirated from the cells, cells were washed twice with NaCl-HEPES buffer without drug, then incubated for 30 min at room temperature with NH4Cl-HEPES buffer (20 mM NH4Cl, 80 mM NaCl, 50 mM HEPES, 5 mM KCl, 2 mM CaCl2, 1 mM MgCl2, pH 7.4) containing 5 μM BCECF-AM. Cells were washed twice with ammonium free, Na^+-free HEPES (100 mM choline, 50 mM HEPES, 10 mM glucose, 5 mM KCl, 2 mM CaCl2, 1 mM MgCl2, pH 7.4) and incubated in the same buffer for 10 minutes at room temperature to lower intracellular pH. […] Initial rates were plotted as the average 2 or more replicates, and pIC50 values were estimated using GraphPad Prism.

T2 sequence (P26433 29-831): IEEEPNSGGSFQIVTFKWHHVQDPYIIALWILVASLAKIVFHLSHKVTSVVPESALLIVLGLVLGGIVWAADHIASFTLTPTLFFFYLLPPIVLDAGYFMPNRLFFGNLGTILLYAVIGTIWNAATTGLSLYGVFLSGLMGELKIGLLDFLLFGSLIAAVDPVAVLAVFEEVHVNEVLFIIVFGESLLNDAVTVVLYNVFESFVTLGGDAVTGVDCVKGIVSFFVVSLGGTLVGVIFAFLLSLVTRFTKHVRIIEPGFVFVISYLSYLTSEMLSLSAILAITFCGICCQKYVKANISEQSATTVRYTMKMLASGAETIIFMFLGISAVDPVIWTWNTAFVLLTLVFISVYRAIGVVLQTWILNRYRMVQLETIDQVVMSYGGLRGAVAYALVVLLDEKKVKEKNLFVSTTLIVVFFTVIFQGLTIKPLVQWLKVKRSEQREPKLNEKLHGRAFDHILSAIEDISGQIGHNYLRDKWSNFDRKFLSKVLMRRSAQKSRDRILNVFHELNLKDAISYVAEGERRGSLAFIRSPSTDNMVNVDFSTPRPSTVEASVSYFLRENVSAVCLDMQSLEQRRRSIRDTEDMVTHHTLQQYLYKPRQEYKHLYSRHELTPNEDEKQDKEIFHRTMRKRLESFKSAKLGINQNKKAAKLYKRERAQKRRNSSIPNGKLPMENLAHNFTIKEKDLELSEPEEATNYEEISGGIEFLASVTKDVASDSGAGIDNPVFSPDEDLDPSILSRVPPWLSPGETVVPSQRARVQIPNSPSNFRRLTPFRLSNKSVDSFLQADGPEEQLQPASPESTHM

SMILES	IC50 (human NHE-3) [nM]	IC50 (Rat NHE-3 [1]) [nM]	IC50 (Rat NHE-3 [2]) [nM]	Human NHE3 pIC50 (human NHE-3)	Rat NHE3 pIC50 (prompt) (Rat NHE-3 [1])	Rat NHE3 pIC50 (persistent) (Rat NHE-3 [2])
CN1Cc2c(Cl)cc(Cl)cc2[C@H](c2cccc(S(=O)(=O)NCCOCCOCCOCCNC(=O)CCC(CCC(=O)NCCOCCOCCOCCNS(=O)(=O)c3cccc([C@@H]4CN(C)Cc5c(Cl)cc(Cl)cc54)c3)(CCC(=O)NCCOCCOCCOCCNS(=O)(=O)c3cccc([C@@H]4CN(C)Cc5c(Cl)cc(Cl)cc54)c3)NC(=O)Nc3ccccc3)c2)C1 [Example 13, 4-(1-(3-((S)-6,8-dichloro-2-methyl-1,2,3,4-tetrahydroisoquinolin-4-yl)phenylsulfonamido)-13-oxo-3,6,9-trioxa-12-azapentadecan-15-yl)-N^1,N^7-bis(2-(2-(2-(2-(3-((S)-6,8-dichloro-2-methyl-1,2,3,4-tetrahydroisoquinolin-4-yl)phenylsulfonamido)ethoxy)ethoxy)ethoxy)ethyl)-4-(3-phenylureido)heptanediamide]	100 to 10000	100 to 10000	< 100			
CCCCCCCCCCC(=O)NC(CCC(=O)NCCOCCOCCNS(=O)(=O)c1cccc([C@@H]2CN(C)Cc3c(Cl)cc(Cl)cc32)c1)(CCC(=O)NCCOCCOCCNS(=O)(=O)c1cccc([C@@H]2CN(C)Cc3c(Cl)cc(Cl)cc32)c1)CCC(=O)NCCOCCOCCNS(=O)(=O)c1cccc([C@@H]2CN(C)Cc3c(Cl)cc(Cl)cc32)c1 [Example 22]				B (B NHE3 pIC50 5-7)	A (A NHE3 pIC50 < 5)	B (B NHE3 pIC50 5-7)
CN1Cc2c(Cl)cc(Cl)cc2[C@H](c2cccc(S(=O)(=O)NCCOCCOCCNC(=O)CCC(CCC(=O)NCCOCCOCCNS(=O)(=O)c3cccc([C@@H]4CN(C)Cc5c(Cl)cc(Cl)cc54)c3)(CCC(=O)NCCOCCOCCNS(=O)(=O)c3cccc([C@@H]4CN(C)Cc5c(Cl)cc(Cl)cc54)c3)NCc3ccc(-c4ccc(Cl)cc4)cc3)c2)C1 [Example 24]				A (A NHE3 pIC50 < 5)	A (A NHE3 pIC50 < 5)	B (B NHE3 pIC50 5-7)
CN1Cc2c(Cl)cc(Cl)cc2[C@H](c2cccc(S(=O)(=O)NCCOCCOCCN(C)C(=O)CCC(CCC(=O)N(C)CCOCCOCCNS(=O)(=O)c3cccc([C@@H]4CN(C)Cc5c(Cl)cc(Cl)cc54)c3)(CCC(=O)N(C)CCOCCOCCNS(=O)(=O)c3cccc([C@@H]4CN(C)Cc5c(Cl)cc(Cl)cc54)c3)NC(=O)NCC(=O)O)c2)C1 [Example 69]				C (C NHE3 pIC50 > 7)	C (C NHE3 pIC50 > 7)	C (C NHE3 pIC50 > 7)
CN1Cc2c(Cl)cc(Cl)cc2[C@H](c2cccc(S(=O)(=O)NCCOCCOCCOCCNC(=O)NCCCN(CCCNC(=O)NCCOCCOCCOCCNS(=O)(=O)c3cccc([C@@H]4CN(C)Cc5c(Cl)cc(Cl)cc54)c3)CCCNC(=O)NCCOCCOCCOCCNS(=O)(=O)c3cccc([C@@H]4CN(C)Cc5c(Cl)cc(Cl)cc54)c3)c2)C1 [Example 51]				C (C NHE3 pIC50 > 7)	C (C NHE3 pIC50 > 7)	C (C NHE3 pIC50 > 7)
CN1Cc2c(Cl)cc(Cl)cc2[C@H](c2cccc(S(=O)(=O)NCCOCCOCCOCCn3cc(CN(Cc4cn(CCOCCOCCOCCNS(=O)(=O)c5cccc([C@@H]6CN(C)Cc7c(Cl)cc(Cl)cc76)c5)nn4)Cc4cn(CCOCCOCCOCCNS(=O)(=O)c5cccc([C@@H]6CN(C)Cc7c(Cl)cc(Cl)cc76)c5)nn4)nn3)c2)C1 [Example 18, (S,S)—N,N′,N″-(2,2′,2″-(2,2′,2″-(2,2′,2″-(2,2′,2″-(4,4′,4″-nitrilotris(methylene)tris(1H-1,2,3-triazole-4,1-diyl))tris(ethane-2,1-diyl))tris(oxy)tris(ethane-2,1-diyl))tris(oxy)tris(ethane-2,1-diyl))tris(oxy)tris(ethane-2,1-diyl))tris(3-((S)-6,8-dichloro-2-methyl-1,2,3,4-tetrahydroisoquinolin-4-yl)benzenesulfonamide)]	100 to 10000	100 to 10000	> 10000			
CN1Cc2c(Cl)cc(Cl)cc2[C@H](c2cccc(S(=O)(=O)NCCOCCOCCOCCNC(=O)CN(CCOCCOCCN(CC(=O)NCCOCCOCCOCCNS(=O)(=O)c3cccc([C@@H]4CN(C)Cc5c(Cl)cc(Cl)cc54)c3)CC(=O)NCCOCCOCCOCCNS(=O)(=O)c3cccc([C@@H]4CN(C)Cc5c(Cl)cc(Cl)cc54)c3)CC(=O)NCCOCCOCCOCCNS(=O)(=O)c3cccc([C@@H]4CN(C)Cc5c(Cl)cc(Cl)cc54)c3)c2)C1 [Example 42, 3,12-bis(14-(3-((S)-6,8-dichloro-2-methyl-1,2,3,4-tetrahydroisoquinolin-4-yl)phenylsulfonamido)-2-oxo-6,9,12-trioxa-3-azatetradecyl)-N^1,N^14-bis(2-(2-(2-(2-(3-((S)-6,8-dichloro-2-methyl-1,2,3,4-tetrahydroisoquinolin-4-yl)phenylsulfonamido)ethoxy)ethoxy)ethoxy)ethyl)-6,9-dioxa-3,12-diazatetradecane-1,14-diamide]	< 100	< 100	< 100			
CN1Cc2c(Cl)cc(Cl)cc2[C@H](c2cccc(S(=O)(=O)NCCOCCOCCNC(=O)NCCN(CCNC(=O)NCCOCCOCCNS(=O)(=O)c3cccc([C@@H]4CN(C)Cc5c(Cl)cc(Cl)cc54)c3)C(=O)CCOCCOCCOCCOCCOCCC(=O)N(CCNC(=O)NCCOCCOCCNS(=O)(=O)c3cccc([C@@H]4CN(C)Cc5c(Cl)cc(Cl)cc54)c3)CCNC(=O)NCCOCCOCCNS(=O)(=O)c3cccc([C@@H]4CN(C)Cc5c(Cl)cc(Cl)cc54)c3)c2)C1 [Example 59]				C (C NHE3 pIC50 > 7)	B (B NHE3 pIC50 5-7)	C (C NHE3 pIC50 > 7)
